Test results published in patent US11702450B2, “Proteogenomic-based method for identifying tumor-specific antigens” (UNIVERSITÉ DE MONTRÉAL, priority 2018, dated 2023).
“Also recorded” adds a separate entry of the source.

Tests used:
[1] = system: CD8^+ T cells; assay type: cell-based, C57BL/6 mice
[2] = system: EL4 cells; experiment: Immunization with TSA-pulsed DCs followed by live EL4 cell challenge and rechallenge; assay type: in vivo, C57BL/6 mice; conditions: for day-150 survival rate / mice with prolonged survival after priming: immunized twice with TSA-pulsed DCs, 5×10^5 live EL4 cells i.v. day 0; for outcome of rechallenge with live EL4 cells at day 150: surviving immunized mice rechallenged at day 150
Protocol: Generation of bone marrow-derived dendritic cells (DCs), mouse immunization and EL4 cell injection. Bone marrow—derived DCs were generated as previously described^13a,14a. For mouse immunization, DCs from male C57BL/6 mice were pulsed with 2 μM of the selected peptide for 3 hours, then washed. 8- to 12-week old female C57BL/6 mice were injected i.v. with 10^6 individually peptide-pulsed DCs at day −14 and −7, or with irradiated EL4 cells (10,000 cGy). As negative control, C57BL/6 female mice were immunized with unpulsed DCs. At day 0 and day 150, mice were injected i.v. with 5×10^5 EL4 cells and were monitored for weight loss, paralysis, or tumor outgrowth.

[3] = literature references 9, 37; cited from earlier work

Sequence	frequency of antigen-specific CD8 T cells in naive mice [1]	day-150 survival rate [2]	outcome of rechallenge with live EL4 cells at day 150 [2]	other results
TVPLNHNTL (listed as Mus musculus) [EL4 TSA]	less than one	surviving up day 150	survived the rechallenge	mice with prolonged survival after priming [2]: 10%
SPSYVYHQF (listed as Mus musculus) [AH1 peptide, aeTSA previously identified on CT26 cells]	–	–	–	antitumor responses and adverse effects [3]: elicits strong antitumor responses devoid of adverse effects
VNYIHRNV (VNYXHRNV; VARIANT (4)..(4) Xaa is Ile or Leu; listed as Mus musculus)	frequencies similar to those of the viral controls	20%	not sufficient to protect mice upon rechallenge; also recorded: no significant protection upon rechallenge	tetramer^+ CD8 T cells in long-term survivors after rechallenge [1]: large population of tetramer^+ cells; time to death from leukemia after rechallenge ([2]; surviving immunized mice rechallenged with EL4 cells at day 150): ≤ 50 days
HGIRNASFI (listed as Murine cytomegalovirus) [M45, H-2db, reference compound]	within range of those observed in previous studies	–	–	–
IILEFHSL (listed as Mus musculus) [EL4 TSA]	less than one	–	–	mice with prolonged survival after priming [2]: 10%
VNYLHRNV (VNYXHRNV; VARIANT (4)..(4) Xaa is Ile or Leu; listed as Mus musculus)	frequencies similar to those of the viral controls	100%	survived the rechallenge	rank of protection against EL4 challenge ([2]; immunization with TSA-pulsed DCs): best protection
KAVYNFATC [gp-33, reference compound]	within range of those observed in previous studies	–	–	–
TSYKFESV [B8R, reference compound]	within range of those observed in previous studies	–	–	–
